From ChEMBL document CHEMBL5050831, “Substituted quinoxaline derivatives as inhibitors of pfkfb” (2019) come the findings set out here.

Structures are written as SMILES.

A short description of the data set: Metabolic stability in human liver microsomes at […] in presence of NADPH assessed as intrinsic clearance. The class given is ADME, Microsome. The settings on record: read-out: CLH. (In general: Microsomes from liver hold many membrane-bound enzymes, among them those of drug oxidation.)

As to `CC(C)[C@H](Nc1cc(-c2ccc3ccn(C)c3c2)c2nccnc2c1)c1cccnc1`, the microsomal CLint is 85 µL/min/mg.
